From the NIST ThermoML archive (doi:10.1021/acs.jced.8b00400)
Numbers after ± are expanded uncertainties.

Experiment: osmotic coefficient (dimensionless); mn = molality of the nth substance listed, in mol/kg
Settings: 298.15 K, 100 kPa, Liquid, isopiestic method

| osmotic coefficient (m1 = 0.9956) | osmotic coefficient (m1 = 2.002) | osmotic coefficient (m1 = 1.004) | osmotic coefficient (m1 = 2.01) | SMILES |
| --- | --- | --- | --- | --- |
| 0.901 ± 0.011 | 0.916 ± 0.011 |  |  | [Cl-].[K+] [potassium chloride] + O |
|  |  | 0.9589 ± 0.0089 | 1.032 ± 0.0089 | [Na+].[OH-] [sodium hydroxide] + O |
